The numbers were not newly measured in patent EP3094315B1, “PHARMACEUTICAL COMPOSITION COMPRISING ARIPIPRAZOLE OR SALT THEREOF” (Pharmathen S.A., priority 2014, dated 2015), which cites them from elsewhere.

Like-named read-outs stand apart in the source and are kept apart here.

Take `O=C1CCc2ccc(OCCCCN3CCN(c4cccc(Cl)c4Cl)CC3)cc2N1` [Aripiprazole, 7-{4-[4-(2,3-dichlorophenyl)piperazin-1-yl]butoxy}-3,4-dihydroquinolin-2(1H)-one]: the solubility result (in N,N-dimethyl formamide) was “freely soluble”, the solubility entry (in dichloromethane) is listed as “freely soluble” and the solubility entry (in water) was “practically insoluble”.
